# Test results from patent US10849864B2, “Combinations and methods for the treatment and/or prevention of fungal infections” (Novan, Inc., priority 2015, dated 2020).
# Structures can show the parent of a compound that is named as a salt.
# Test system: Tricophyton rubrum (ATCC #28188)
# Assay: MIC evaluation of individual test materials (Macrodilution Broth Method, Phase I)
# Format: cell-based
# Settings: Trichophyton rubrum, ATCC28188; test material alone; T. rubrum inoculum 1.775 × 10^3 CFU/mL per tube; read-out: Minimum Inhibitory Concentration (MIC) (as product concentration)
# Experimental: The purpose of this study was to evaluate the synergistic in vitro interactions of one drug pair when challenged with Tricophyton rubrum (ATCC #28188).
# A minimum inhibitory concentration (MIC) evaluation was performed for each test material versus T. rubrum using modifications of the Macrodilution Broth Method outlined in the CLSI (clinical laboratory standards institute) Document M07-A9: Methods for dilution antimicrobial susceptibility tests for bacteria that grow aerobically, 9th edition. The test materials were terbinafine hydrochloride and Nitricil™ NVN1, which is a NO-releasing diazeniumdiolate-functionalized co-condensed silica from Novan, Inc.
# The challenge strain of T. rubrum was exposed to a series of doubling dilutions of each test material. […]
# An initial population of T. rubrum was prepared containing approximately 10^3 CFU (colony forming units)/mL in appropriate fungal growth media (RPMI). This initial population density was precisely determined by preparing ten-fold dilutions and plating them on the appropriate solid fungal growth media for colony enumeration. […] Following incubation, the colonies were manually counted to determine the precise number of colonies present in the initial population. […]
# The tubes were visually assessed on the basis of turbidity in order to determine fungal growth.
smiles,measurement,value
"CN(C/C=C/C#CC(C)(C)C)Cc1cccc2ccccc12 [Terbinafine hydrochloride, terbinafine hydrochloride]",MIC,0.012 µg/mL
